The values below come from ChEMBL document CHEMBL1141632, “Synthesis and evaluation of novel 3,4,6-substituted 2-quinolones as FMS kinase inhibitors” (Bioorg Med Chem Lett, 2008).

Calls of active or inactive are those of the source. The calls are words filed in the database; no cut-off is given here. A value given as a limit tells only on which side of the number the result lay.

Data set [1] has as its system Mus musculus. Put plainly: Inhibition of FMS in B6C3F1 mouse assessed as reduction in CSF1-induced C-fos levels at 50 mg/kg, po. Type of data set: functional, organism-based. On the set-up: dose 50 mg/kg.
Data set [2] relates to Mus musculus. Briefly: Inhibition of FMS in B6C3F1 mouse assessed as reduction in CSF1-induced C-fos levels at 5 mg/kg, po. The data set is classed as functional, organism-based. More on the design: dose 5 mg/kg.
In data set [3] the test system is Mus musculus. Briefly: Inhibition of FMS in B6C3F1 mouse assessed as reduction in CSF1-induced C-fos levels at 20 mg/kg, po. Type of data set: functional, organism-based. On the set-up: dose 20 mg/kg.
Data set [4] is described as follows: Inhibition of CSF1-induced human BMDM cell proliferation. The data set is classed as functional, cell-based.
The target in data set [5] is T1, Macrophage colony-stimulating factor 1 receptor (Homo sapiens, UniProt P07333). Put plainly: Inhibition of human cytoplasmic macrophage colony-stimulating factor 1 receptor at 5 uM by fluorescence polarization. (In fluorescence polarisation assays a small probe gives low polarisation when free and higher when bound to something large.)
Data set [6] deals with T1, Macrophage colony-stimulating factor 1 receptor. Put plainly: Inhibition of human cytoplasmic macrophage colony-stimulating factor 1 receptor by fluorescence polarization.
Data set [7] concerns the target Platelet-derived growth factor receptor beta (Homo sapiens, UniProt P09619). Briefly: Inhibition of PDGFRbeta.
The nature of data set [8]: Half life in rat at 2 mg/kg, iv and 10 mg/kg, po. The conditions noted are these: in vivo. The data set is classed as ADME, organism-based.
For data set [9], the target named is Mast/stem cell growth factor receptor Kit (Homo sapiens, UniProt P10721). Put plainly: Inhibition of KIT.
Data set [10] concerns the target T2, Receptor-type tyrosine-protein kinase FLT3 (Homo sapiens, UniProt P36888).
T2 sequence (P36888 whole entry): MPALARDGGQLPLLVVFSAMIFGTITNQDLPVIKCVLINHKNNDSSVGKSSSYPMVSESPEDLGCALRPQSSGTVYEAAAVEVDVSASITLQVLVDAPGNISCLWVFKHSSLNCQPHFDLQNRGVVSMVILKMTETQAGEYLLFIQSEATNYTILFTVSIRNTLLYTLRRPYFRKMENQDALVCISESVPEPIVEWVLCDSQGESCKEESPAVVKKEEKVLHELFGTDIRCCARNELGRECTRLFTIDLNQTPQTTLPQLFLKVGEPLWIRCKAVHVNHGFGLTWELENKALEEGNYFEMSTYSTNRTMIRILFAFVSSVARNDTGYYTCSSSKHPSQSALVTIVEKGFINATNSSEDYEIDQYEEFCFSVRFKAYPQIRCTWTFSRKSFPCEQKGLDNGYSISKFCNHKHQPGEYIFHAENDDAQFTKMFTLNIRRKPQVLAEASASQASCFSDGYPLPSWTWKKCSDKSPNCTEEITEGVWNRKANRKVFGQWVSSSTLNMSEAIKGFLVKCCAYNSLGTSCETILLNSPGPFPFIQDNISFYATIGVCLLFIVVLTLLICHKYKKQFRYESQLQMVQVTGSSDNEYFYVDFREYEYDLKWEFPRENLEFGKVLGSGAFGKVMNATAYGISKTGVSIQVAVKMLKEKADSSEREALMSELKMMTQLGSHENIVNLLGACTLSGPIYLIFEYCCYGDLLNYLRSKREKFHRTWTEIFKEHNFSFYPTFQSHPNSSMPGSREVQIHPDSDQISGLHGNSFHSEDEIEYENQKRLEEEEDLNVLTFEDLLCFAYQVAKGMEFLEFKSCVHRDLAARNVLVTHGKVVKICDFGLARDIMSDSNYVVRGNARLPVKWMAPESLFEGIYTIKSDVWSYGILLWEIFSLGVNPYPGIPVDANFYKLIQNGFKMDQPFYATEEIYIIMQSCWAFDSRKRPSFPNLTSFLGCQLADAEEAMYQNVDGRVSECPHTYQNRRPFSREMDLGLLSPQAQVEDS
Put plainly: Inhibition of FLT3.

The nature of data set [11]: Clearance in rat at 2 mg/kg, iv and 10 mg/kg, po. Type of data set: ADME, organism-based. The conditions noted are these: in vivo.
A short description of data set [12]: Oral bioavailability in rat at 10 mg/kg. The data set is classed as ADME, organism-based. The note with it: in vivo.
A short description of data set [13]: Volume of distribution in rat at 2 mg/kg, iv and 10 mg/kg, po. Type of data set: ADME, organism-based. The note with it: in vivo.
Data set [14] in a line: Cmax in rat at 2 mg/kg, iv and 10 mg/kg, po. Type of data set: ADME, organism-based. The note with it: in vivo.

T1 sequence (P07333 whole entry): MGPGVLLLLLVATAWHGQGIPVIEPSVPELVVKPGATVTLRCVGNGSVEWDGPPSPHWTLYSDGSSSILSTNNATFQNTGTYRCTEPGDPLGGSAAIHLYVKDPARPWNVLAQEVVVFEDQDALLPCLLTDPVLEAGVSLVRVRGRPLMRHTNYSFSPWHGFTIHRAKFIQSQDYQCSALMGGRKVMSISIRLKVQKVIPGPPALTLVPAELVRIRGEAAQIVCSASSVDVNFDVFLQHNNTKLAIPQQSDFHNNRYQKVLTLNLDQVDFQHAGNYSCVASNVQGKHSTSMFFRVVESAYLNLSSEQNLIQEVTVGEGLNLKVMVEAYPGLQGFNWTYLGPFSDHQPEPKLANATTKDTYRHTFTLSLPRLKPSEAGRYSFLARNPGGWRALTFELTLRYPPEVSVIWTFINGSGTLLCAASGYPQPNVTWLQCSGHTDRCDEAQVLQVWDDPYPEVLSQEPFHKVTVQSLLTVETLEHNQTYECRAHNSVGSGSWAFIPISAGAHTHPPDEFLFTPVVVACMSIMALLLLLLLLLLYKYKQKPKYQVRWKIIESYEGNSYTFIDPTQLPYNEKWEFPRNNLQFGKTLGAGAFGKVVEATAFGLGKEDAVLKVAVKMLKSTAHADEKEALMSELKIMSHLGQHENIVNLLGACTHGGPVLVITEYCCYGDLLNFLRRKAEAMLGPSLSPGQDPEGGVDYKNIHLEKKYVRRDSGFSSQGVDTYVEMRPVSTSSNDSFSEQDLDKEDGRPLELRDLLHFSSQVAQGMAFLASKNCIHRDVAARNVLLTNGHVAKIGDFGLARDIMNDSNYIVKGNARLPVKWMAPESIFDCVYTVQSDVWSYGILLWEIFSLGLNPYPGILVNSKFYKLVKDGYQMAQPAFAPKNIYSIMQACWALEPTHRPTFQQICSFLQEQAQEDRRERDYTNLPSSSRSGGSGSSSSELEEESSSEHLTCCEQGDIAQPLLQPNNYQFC
Chain of Mast/stem cell growth factor receptor Kit (P10721 whole entry): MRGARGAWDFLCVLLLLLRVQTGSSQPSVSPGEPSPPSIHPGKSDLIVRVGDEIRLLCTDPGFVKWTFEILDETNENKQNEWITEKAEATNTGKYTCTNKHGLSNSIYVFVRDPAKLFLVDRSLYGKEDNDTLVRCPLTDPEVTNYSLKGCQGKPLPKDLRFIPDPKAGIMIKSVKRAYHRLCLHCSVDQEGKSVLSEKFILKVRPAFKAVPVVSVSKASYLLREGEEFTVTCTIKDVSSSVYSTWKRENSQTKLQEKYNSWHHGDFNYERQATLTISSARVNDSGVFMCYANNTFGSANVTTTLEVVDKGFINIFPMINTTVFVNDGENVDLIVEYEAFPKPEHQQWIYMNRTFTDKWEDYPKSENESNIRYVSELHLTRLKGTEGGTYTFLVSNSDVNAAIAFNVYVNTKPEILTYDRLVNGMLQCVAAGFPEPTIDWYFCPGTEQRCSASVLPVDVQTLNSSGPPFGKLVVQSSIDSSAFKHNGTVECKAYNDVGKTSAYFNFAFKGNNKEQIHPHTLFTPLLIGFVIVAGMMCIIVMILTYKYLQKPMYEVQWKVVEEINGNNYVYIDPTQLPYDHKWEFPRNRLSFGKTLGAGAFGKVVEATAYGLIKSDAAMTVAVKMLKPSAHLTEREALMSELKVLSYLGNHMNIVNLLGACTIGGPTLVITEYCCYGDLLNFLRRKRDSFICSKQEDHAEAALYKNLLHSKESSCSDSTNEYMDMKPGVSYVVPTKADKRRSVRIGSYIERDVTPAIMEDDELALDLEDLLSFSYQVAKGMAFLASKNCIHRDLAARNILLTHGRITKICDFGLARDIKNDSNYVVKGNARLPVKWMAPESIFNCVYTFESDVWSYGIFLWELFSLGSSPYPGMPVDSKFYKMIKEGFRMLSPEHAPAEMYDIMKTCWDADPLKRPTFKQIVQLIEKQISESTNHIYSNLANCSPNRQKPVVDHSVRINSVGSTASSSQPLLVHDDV
Chain of Platelet-derived growth factor receptor beta (P09619 whole entry): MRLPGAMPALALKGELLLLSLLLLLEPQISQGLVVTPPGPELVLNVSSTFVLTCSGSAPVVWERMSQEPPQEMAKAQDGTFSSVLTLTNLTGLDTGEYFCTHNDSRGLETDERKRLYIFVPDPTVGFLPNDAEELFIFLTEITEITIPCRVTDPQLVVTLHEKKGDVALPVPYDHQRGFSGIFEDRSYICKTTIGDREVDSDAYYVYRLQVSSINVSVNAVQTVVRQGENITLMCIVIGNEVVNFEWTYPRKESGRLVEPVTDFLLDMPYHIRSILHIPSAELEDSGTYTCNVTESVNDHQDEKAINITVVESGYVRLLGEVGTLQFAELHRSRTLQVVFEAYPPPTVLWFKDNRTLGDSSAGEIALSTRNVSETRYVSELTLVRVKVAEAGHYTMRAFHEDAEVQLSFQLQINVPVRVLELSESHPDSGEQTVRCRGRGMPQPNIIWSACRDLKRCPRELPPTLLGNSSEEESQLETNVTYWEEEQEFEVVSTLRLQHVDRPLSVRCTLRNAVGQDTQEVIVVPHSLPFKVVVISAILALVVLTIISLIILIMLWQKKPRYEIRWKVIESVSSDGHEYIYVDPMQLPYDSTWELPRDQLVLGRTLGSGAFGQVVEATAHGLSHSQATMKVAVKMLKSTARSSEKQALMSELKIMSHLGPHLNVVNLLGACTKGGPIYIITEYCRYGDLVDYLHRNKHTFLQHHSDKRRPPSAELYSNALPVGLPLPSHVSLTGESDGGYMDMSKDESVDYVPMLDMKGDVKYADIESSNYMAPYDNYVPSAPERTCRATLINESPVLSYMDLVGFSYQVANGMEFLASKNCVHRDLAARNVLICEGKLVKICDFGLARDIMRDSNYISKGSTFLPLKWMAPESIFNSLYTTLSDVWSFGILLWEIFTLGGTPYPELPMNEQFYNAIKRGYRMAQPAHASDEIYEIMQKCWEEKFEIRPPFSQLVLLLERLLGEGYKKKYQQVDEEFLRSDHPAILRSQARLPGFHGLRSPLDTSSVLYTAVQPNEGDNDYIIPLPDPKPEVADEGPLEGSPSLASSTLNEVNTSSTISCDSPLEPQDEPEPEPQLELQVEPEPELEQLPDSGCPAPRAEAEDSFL

As to `CCc1ccc(-c2c(-c3cnc(C)[nH]3)c(=O)[nH]c3ccc(C#N)cc23)cc1`, the result in data set [1], in [2] and in data set [3] was Active. Further, the IC50 in [4] amounted to 5 nM.

Turning to `Cc1cc(-c2c(-c3ccccc3)c3cnccc3[nH]c2=O)on1`, the inhibition in data set [5] is 8%.

In [6], `Cc1cc(-c2c(-c3ccccc3)c3ccccc3[nH]c2=O)on1` had an IC50 of more than 5000 nM.

Regarding `CCc1ccc(-c2c(-c3c[nH]c(C)n3)c(=O)[nH]c3ccc(C#N)cc23)cc1`, the IC50 in data set [7] is more than 1000 nM; in [9], 170 nM; in data set [10], 47 nM. In data set [8], this compound yielded a half-life of 1.07 h. The compound further came in with a clearance in [11] of 93 mL/min/kg. The same compound gave a bioavailability in data set [12] of 56%. Further, in [13], the Vd is 8.6 L/kg. In data set [14], this compound yielded a Cmax of 317 ng/mL.

As to `Cc1cc(-c2c(-c3ccccc3)c3ncccc3[nH]c2=O)on1`, the IC50 in [6] was more than 20000 nM.

In the case of `CCc1ccc(-c2c(-c3cnc(C)[nH]3)c(=O)[nH]c3ccc(Cl)cc23)cc1`, the IC50 in [7] was more than 1000 nM; in data set [9] it was 67 nM; in data set [10] it was 34 nM; in [4], 28 nM.

`Cc1cc(-c2c(-c3ccccc3)c3cc(N)ccc3[nH]c2=O)on1`: the IC50 in data set [6] was more than 5000 nM.

One may read the IC50 as the concentration that gives 50% inhibition. A low value points to greater potency. As usually defined, the inhibition is the change of the read-out against control, counted positive when it falls. Low values mean a weak effect, high ones a strong effect. What is called half-life is the time in which the quantity being followed falls by half. Broadly, the bioavailability is dose-corrected exposure relative to a reference, in per cent. Read a high bioavailability as much systemic uptake. By Cmax is commonly meant the highest concentration seen after dosing.
